Source: DBAASP
≈ marks a conversion by molar mass, not a printed value.

Experiments:
Test in all cases: ≥ marks a high value that may be exact or a test limit, other limits are often not marked, values filed in µg/mL are converted to µM
[1] = system: Escherichia coli HB101
[2] = system: Leishmania major MHOM/IL/67/JERICHO-II
[3] = system: Staphylococcus aureus Cowan 1
[4] = system: Bacillus subtilis ATCC 6633
[5] = system: Candida albicans ATCC 10231
[6] = system: Candida parapsilosis ATCC 22019
[7] = system: Cryptococcus neoformans
[8] = system: Escherichia coli ATCC 9637
[9] = system: Klebsiella pneumoniae ATCC 27736
[10] = system: Pseudomonas aeruginosa ATCC BAA-427
[11] = system: Sporothrix schenckii
[12] = system: Staphylococcus aureus ATCC 25923
[13] = system: Staphylococcus aureus ATCC 29213
[14] = system: Staphylococcus aureus ATCC 33592
[15] = system: Staphylococcus aureus ATCC 700698
[16] = system: Staphylococcus aureus ATCC 700699
[17] = system: Staphylococcus aureus ATCC BAA-44
[18] = system: Acinetobacter baumannii ATCC 19606
[19] = system: Bacillus megaterium
[20] = system: Candida albicans ATCC 90028
[21] = system: Enterococcus faecalis ATCC 29212
[22] = system: Escherichia coli ATCC 25922
[23] = system: Escherichia coli ATCC 35218
[24] = system: Escherichia coli ML-35p
[25] = system: Klebsiella pneumoniae ATCC 13883
[26] = system: Pseudomonas aeruginosa ATCC 27853
[27] = system: Saccharomyces cerevisiae
[28] = system: Salmonella enterica subsp. enterica serovar Enteritidis
[29] = system: Staphylococcus aureus ATCC 43300
[30] = system: Staphylococcus aureus ST1065
[31] = system: Escherichia coli ATCC 2592
[32] = system: Micrococcus luteus ATCC 9341
[33] = system: Pseudomonas aeruginosa ATCC 9027
[34] = system: Staphylococcus aureus 1550
[35] = system: Staphylococcus aureus ATCC 6538
[36] = system: Escherichia coli C25
[37] = system: Alcaligenes faecalis ATCC 8750
[38] = system: Enterobacter cloacae beta-12
[39] = system: Escherichia coli D31
[40] = system: Escherichia coli SBS 363
[41] = system: Salmonella enterica subsp. arizonae
[42] = system: Salmonella sp.
[43] = system: Serratia marcescens ATCC 4112
[44] = system: Streptococcus mutans UA159
[45] = system: Streptococcus sanguinis ATCC 10556
[46] = system: Streptococcus sobrinus ATCC 6715

`CSCC[C@H](NC(=O)[C@@H](NC(=O)CNC(=O)[C@H](CC(C)C)NC(=O)[C@H](CCCCN)NC(=O)[C@H](CCCCN)NC(=O)[C@H](CC(C)C)NC(=O)[C@H](CCSC)NC(=O)[C@@H](NC(=O)[C@H](CCCCN)NC(=O)[C@H](Cc1c[nH]c2ccccc12)NC(=O)[C@H](CC(C)C)NC(=O)[C@H](C)N)[C@@H](C)O)[C@@H](C)O)C(N)=O` [ALWKTMLKKLGTM] was tested. Which MIC [1] did it give?
The MIC was ≥ 50.6 µM.

And the MIC [2]?
Its MIC is ≥ 50.6 µM.

What about the MIC [3] of the same compound?
Its MIC is ≥ 50.6 µM.

Which results are given for `CC[C@H](C)[C@H](NC(=O)[C@H](C)NC(=O)CNC(=O)[C@H](CCCCN)NC(=O)[C@@H](NC(=O)[C@H](CC(C)C)NC(=O)[C@H](Cc1c[nH]c2ccccc12)NC(=O)CNC(=O)[C@H](Cc1ccccc1)NC(=O)[C@@H](N)Cc1ccccc1)[C@@H](C)CC)C(=O)N[C@@H](Cc1cnc[nH]1)C(=O)N[C@@H](C)C(=O)N1CCC[C@H]1C(=O)N[C@@H](CCCCN)C(=O)N[C@@H](C)C(=O)N[C@H](C(=O)N[C@@H](Cc1cnc[nH]1)C(=O)N1CCC[C@H]1C(=O)N[C@@H](CC(C)C)C(=O)N[C@H](C(=O)N[C@@H](Cc1cnc[nH]1)C(=O)N[C@@H](CCCN=C(N)N)C(=O)N[C@@H](CCCN=C(N)N)C(=O)N[C@@H](CCCN=C(N)N)C(=O)N[C@@H](Cc1cnc[nH]1)C(=O)O)[C@@H](C)CC)[C@@H](C)CC` [FFGWLIKGAIHAPKAIHPLIHRRRH]?
MIC [4]: 3 µM (≈ 8.92 µg/mL); MIC [5]: > 30 µM; MIC [6]: 30 µM (≈ 89.2 µg/mL); MIC [7]: 30 µM (≈ 89.2 µg/mL); MIC [8]: 6.8 µM (≈ 20.2 µg/mL); MIC [9]: 27.2 µM (≈ 80.9 µg/mL); MIC [10]: 13.6 µM (≈ 40.4 µg/mL); MIC [11]: 30 µM (≈ 89.2 µg/mL); MIC [12]: 3 µM (≈ 8.92 µg/mL); MIC [13]: 3 µM (≈ 8.92 µg/mL); MIC [14]: 1.6 µM (≈ 4.76 µg/mL); MIC [15]: 3 µM (≈ 8.92 µg/mL); MIC [16]: 3 µM (≈ 8.92 µg/mL); MIC [17]: 3 µM (≈ 8.92 µg/mL)

With `CC[C@H](C)[C@H](NC(=O)CNC(=O)[C@H](C)NC(=O)[C@H](CC(C)C)NC(=O)[C@H](C)NC(=O)[C@H](C)NC(=O)[C@@H]1CCCN1C(=O)[C@H](CC(C)C)NC(=O)[C@@H](N)Cc1ccccc1)C(=O)NCC(=O)NCC(=O)N[C@H](C(=O)N[C@@H](CC(C)C)C(=O)NCC(=O)N[C@@H](CCCCN)C(=O)N[C@@H](CC(C)C)C(=O)N[C@@H](Cc1ccccc1)C(N)=O)[C@@H](C)CC` [FLPAALAGIGGILGKLF] as the compound, how does the MIC [18] read?
The MIC was 25 µM (≈ 41.4 µg/mL).

What about the MIC [19] of the same compound?
Its MIC is 1.56 µM (≈ 2.59 µg/mL).

And the MIC [20]?
Its MIC is ≥ 100 µM.

And the MIC [6]?
Its MIC is ≥ 200 µM.

What about the MIC [21] of the same compound?
The MIC was 25 µM (≈ 41.4 µg/mL).

And the MIC [22]?
The MIC was 5 µM (≈ 8.29 µg/mL).

What about the MIC [23] of the same compound?
Its MIC is ≥ 50 µM.

And the MIC [24]?
The MIC was 25 µM (≈ 41.4 µg/mL).

What about the MIC [25] of the same compound?
The MIC was ≥ 100 µM.

And the MIC [26]?
The MIC was > 200 µM.

What about the MIC [27] of the same compound?
The MIC was 25 µM (≈ 41.4 µg/mL).

And the MIC [28]?
The MIC was ≥ 200 µM.

And the MIC [12]?
Its MIC is 6.25 µM (≈ 10.4 µg/mL).

What about the MIC [29] of the same compound?
Its MIC is 6.25 µM (≈ 10.4 µg/mL).

And the MIC [17]?
The MIC was 6.25 µM (≈ 10.4 µg/mL).

And the MIC [30]?
Its MIC is 6.25 µM (≈ 10.4 µg/mL).

`CC(C)[C@H](NC(=O)[C@H](CCCCN)NC(=O)[C@H](Cc1ccccc1)NC(=O)[C@@H](NC(=O)[C@@H](NC(=O)[C@H](CCCCN)NC(=O)[C@@H](N)CCCCN)C(C)C)C(C)C)C(=O)N[C@@H](CCCCN)C(=O)N[C@@H](Cc1ccccc1)C(=O)N[C@@H](Cc1cnc[nH]1)C(=O)O` [KKVVFKVKFH] was tested. Which MIC [31] did it give?
The MIC was 17.5 µM (≈ 22 µg/mL).

What about the MIC [32] of the same compound?
Its MIC is 6.35 µM (≈ 8 µg/mL).

What about the MIC [33] of the same compound?
Its MIC is 7.94 µM (≈ 10 µg/mL).

And the MIC [34]?
The MIC was 19.8 µM (≈ 25 µg/mL).

And the MIC [35]?
Its MIC is 9.92 µM (≈ 12.5 µg/mL).

For `CC[C@H](C)[C@H](NC(=O)[C@H](Cc1ccc(O)cc1)NC(=O)[C@H](CCCN=C(N)N)NC(=O)[C@H](CCCN=C(N)N)NC(=O)[C@@H](N)CCCN=C(N)N)C(=O)NCC(=O)N[C@@H](CCCN=C(N)N)C(=O)N[C@@H](Cc1ccc(O)cc1)C(=O)N[C@H](C(=O)N[C@@H](CCCN=C(N)N)C(=O)N[C@@H](Cc1ccccc1)C(=O)N[C@@H](Cc1c[nH]c2ccccc12)C(=O)N[C@@H](CCCCN)C(N)=O)C(C)C` [RRRYIGRYVRFWK], which MIC [36] is on record?
The MIC was 2.1 µM (≈ 3.9 µg/mL).

And the MIC [12]?
Its MIC is 8.4 µM (≈ 15.6 µg/mL).

For `CC(C)[C@H](NC(=O)[C@H](C)NC(=O)[C@@H]1CCCN1C(=O)[C@H](Cc1ccc(O)cc1)NC(=O)[C@@H](N)CCCN=C(N)N)C(=O)NCC(=O)N[C@@H](Cc1ccc(O)cc1)C(=O)N[C@H](C(=O)O)[C@@H](C)O` [RYPAVGYT], which MIC [37] is on record?
Its MIC is 6.26 µM (≈ 5.8 µg/mL).

And the MIC [38]?
The MIC was 3.13 µM (≈ 2.9 µg/mL).

And the MIC [39]?
Its MIC is 6.26 µM (≈ 5.8 µg/mL).

And the MIC [40]?
The MIC was 6.26 µM (≈ 5.8 µg/mL).

What about the MIC [26] of the same compound?
The MIC was 6.26 µM (≈ 5.8 µg/mL).

And the MIC [41]?
The MIC was 6.26 µM (≈ 5.8 µg/mL).

What about the MIC [42] of the same compound?
Its MIC is 6.26 µM (≈ 5.8 µg/mL).

What about the MIC [43] of the same compound?
Its MIC is 6.26 µM (≈ 5.8 µg/mL).

With `NCCCC[C@H](NC(=O)[C@H](Cc1c[nH]c2ccccc12)NC(=O)[C@H](CCCCN)NC(=O)[C@H](CCCCN)NC(=O)[C@H](Cc1ccccc1)NC(=O)[C@H](Cc1ccccc1)NC(=O)[C@H](CCCCN)NC(=O)[C@H](CCCCN)NC(=O)[C@H](Cc1ccccc1)NC(=O)[C@H](Cc1ccccc1)NC(=O)[C@H](CCCCN)NC(=O)[C@H](Cc1ccccc1)NC(=O)[C@@H](N)Cc1c[nH]c2ccccc12)C(=O)O` [WFKFFKKFFKKWK] as the compound, how does the MIC [44] read?
The MIC was 4.22 µM (≈ 8 µg/mL).

What about the MIC [45] of the same compound?
The MIC was 4.22 µM (≈ 8 µg/mL).

What about the MIC [46] of the same compound?
The MIC was 4.22 µM (≈ 8 µg/mL).
